Results on 18 molecules are retold here after patent publication US10633379B2, “Bromodomain inhibitors” (AbbVie Inc., priority 2016, dated 2020).

Assay [1] has as its target BRD4 (BDI_K57-E168) (Homo sapiens (Human), UniProt O60885). Put plainly: TR-FRET bromodomain binding assay, BRD4 BDI. The note with it: mean Ki, calculated from IC50, probe Kd and probe concentration. As to the method:
(§1) A time-resolved fluorescence resonance energy transfer (TR-FRET) assay was used to determine the affinities of compounds of the Examples listed in Table 1 for each bromodomain of BRD4. His-tagged first (BDI: amino acids K57-E168) and second (BDII: amino acids E352-M457) bromodomains of BRD4 were expressed and purified. An Alexa647-labeled BET-inhibitor was used as the fluorescent probe in the assay.
(§2) Compound dilution series were prepared in DMSO via an approximately 3-fold serial dilution. Compound dilutions were added directly into white, low-volume assay plates (Perkin Elmer Proxiplate 384 Plus#6008280) using a Labcyte Echo in conjunction with Labcyte Access and Thermo Multidrop CombinL robotics. Compounds were then suspended in eight microliters (μL) of assay buffer (20 mM Sodium Phosphate, pH 6.0, 50 mM NaCl, 1 mM Ethylenediaminetetraacetic acid disodium salt dihydrate, 0.01% Triton X-100, 1 mM DL-Dithiothreitol) containing His-tagged bromodomain, Europium-conjugated anti-His antibody (Invitrogen PV5596) and Alexa-647-conjugated probe.
(§3) The final concentration of 1× assay mixture contained 2% DMSO, 12 nM His tagged BRD4 (BDI_K57-E168) and 100 nM probe or 4 nM His tagged BRD4 (BDII_E352-M457) and 30 nM probe, and 1 nM Europium-conjugated anti-His-tag antibody, and compound concentrations in the range of: 49.02 μM-0.61 nM or 0.98 μM-0.15 nM.
(§4) After a one-hour equilibration at room temperature, TR-FRET ratios were determined using an Envision multilabel plate reader (Ex 340, Em 495/520).
(§5) TR-FRET data were normalized to the means of 24 no-compound controls (“high”) and 8 controls containing 1 μM un-labeled probe (“low”). Percent inhibition was plotted as a function of compound concentration and the data were fit with the 4 parameter logistic equation to obtain IC50s. Inhibition constants (Ki) were calculated from the IC50s, probe Kd and probe concentration.

Assay [2] deals with BRD4 (BDII_E352-M457) (Homo sapiens (Human), UniProt O60885). Nature of the assay: TR-FRET bromodomain binding assay, BRD4 BDII. Conditions: mean Ki, calculated from IC50, probe Kd and probe concentration. Here is the method:
as §1, §2, §3, §4, §5

Regarding `CCNC(=O)c1cc2c(-c3cc([C@@](C)(O)CO)ccc3Oc3c(C)cccc3C)cn(C)c(=O)c2[nH]1` (single isomer, unassigned) [Example 68], the inhibitory constant (Ki) (usually the equilibrium dissociation constant of an inhibitor or competing ligand from its target) in assay [1] is 341 nM; in assay [2] it was 2.2 nM.

Consider `CCNC(=O)c1cc2c(-c3cc([C@](C)(O)CO)ccc3Oc3c(C)cccc3C)cn(C)c(=O)c2[nH]1` (single isomer, unassigned) [Example 69, 4-{5-[(25)-1,2-dihydroxypropan-2-yl]-2-(2,6-dimethylphenoxy)phenyl}-N-ethyl-6-methyl-7-oxo-6,7-dihydro-1H-pyrrolo[2,3-c]pyridine-2-carboxamide], for which the Ki was 499 nM in assay [1] and 2.3 nM in assay [2].

On to `CCNC(=O)c1cc2c(-c3cc(S(C)(=O)=O)ccc3Oc3ccc(F)cc3F)cn(C)c(=O)c2[nH]1` [Compound Y, 4-[2-(2,4-difluorophenoxy)-5-(methylsulfonyl)phenyl]-N-ethyl-6-methyl-7-oxo-6,7-dihydro-1H-pyrrolo[2,3-c]pyridine-2-carboxamide, reference compound], for which the figures for the Ki in assay [1] and in assay [2] were 21.6 nM and 1.32 nM, respectively.

As for `Cn1cc(-c2cc(CO)ccc2Oc2ccccc2)c2cc[nH]c2c1=O` [Compound Z, 4-[5-(hydroxymethyl)-2-phenoxyphenyl]-6-methyl-1,6-dihydro-7H-pyrrolo[2,3-c]pyridin-7-one, reference compound], the Ki in assay [1] was 69.9 nM; in assay [2] it was 15.5 nM.

`CCNC(=O)c1cc2c(-c3cc(C(C)(C)O)cnc3Oc3c(C)cccc3C)cn(C)c(=O)c2[nH]1` [Example 1, 4-[2-(2,6-dimethylphenoxy)-5-(2-hydroxypropan-2-yl)pyridin-3-yl]-N-ethyl-6-methyl-7-oxo-6,7-dihydro-1H-pyrrolo[2,3-c]pyridine-2-carboxamide]: the inhibition constant Ki in assay [1] was 462 nM; in assay [2] it was 2.3 nM.

With `CCNC(=O)c1cc2c(-c3cc(C(O)(CC)CC)cnc3Oc3c(C)cccc3C)cn(C)c(=O)c2[nH]1` [Example 2, 4-[2-(2,6-dimethylphenoxy)-5-(3-hydroxypentan-3-yl)pyridin-3-yl]-N-ethyl-6-methyl-7-oxo-6,7-dihydro-1H-pyrrolo[2,3-c]pyridine-2-carboxamide], the values for the Ki in assay [1] and in assay [2] were 220 nM and 3 nM, respectively.

Regarding `CCNC(=O)c1cc2c(-c3cc(C(C)(C)O)ccc3Oc3c(C)cccc3C)cn(C)c(=O)c2[nH]1` [Example 3, 4-[2-(2,6-dimethylphenoxy)-5-(2-hydroxypropan-2-yl)phenyl]-N-ethyl-6-methyl-7-oxo-6,7-dihydro-1H-pyrrolo[2,3-c]pyridine-2-carboxamide], the Ki in assay [1] was 404 nM; in assay [2], 1.1 nM.

With `CCNC(=O)c1cc2c(-c3cc(C4(O)CC=CC4)cnc3Oc3c(C)cccc3C)cn(C)c(=O)c2[nH]1` [Example 4, 4-[2-(2,6-dimethylphenoxy)-5-(1-hydroxycyclopent-3-en-1-yl)pyridin-3-yl]-N-ethyl-6-methyl-7-oxo-6,7-dihydro-1H-pyrrolo[2,3-c]pyridine-2-carboxamide], the Ki is 215 nM in assay [1] and 3.1 nM in assay [2].

Turning to `CCNC(=O)c1cc2c(-c3cc(C4(O)CC=CC4)ccc3Oc3c(C)cccc3C)cn(C)c(=O)c2[nH]1` [Example 5, 4-[2-(2,6-dimethylphenoxy)-5-(1-hydroxycyclopent-3-en-1-yl)phenyl]-N-ethyl-6-methyl-7-oxo-6,7-dihydro-1H-pyrrolo[2,3-c]pyridine-2-carboxamide], the Ki in assay [1] is 187 nM; in assay [2], 1.6 nM.

Consider `CCNC(=O)c1cc2c(-c3cc(C4(O)CCCC4)cnc3Oc3c(C)cccc3C)cn(C)c(=O)c2[nH]1` [Example 6, 4-[2-(2,6-dimethylphenoxy)-5-(1-hydroxycyclopentyl)pyridin-3-yl]-N-ethyl-6-methyl-7-oxo-6,7-dihydro-1H-pyrrolo[2,3-c]pyridine-2-carboxamide], for which the Ki in assay [1] was 273 nM; in assay [2], 2.3 nM.

`CCNC(=O)c1cc2c(-c3cc(C(O)(CC)c4ccccc4)cnc3Oc3c(C)cccc3C)cn(C)c(=O)c2[nH]1` (stereo not drawn) [Example 7, 4-[2-(2,6-dimethylphenoxy)-5-(1-hydroxy-1-phenylpropyl)pyridin-3-yl]-N-ethyl-6-methyl-7-oxo-6,7-dihydro-1H-pyrrolo[2,3-c]pyridine-2-carboxamide]: the Ki in assay [1] is 632 nM; in assay [2], 4.1 nM.

For `CCNC(=O)c1cc2c(-c3cc(C(C)(O)CC)cnc3Oc3c(C)cccc3C)cn(C)c(=O)c2[nH]1` (stereo not drawn) [Example 8, 4-[2-(2,6-dimethylphenoxy)-5-(2-hydroxybutan-2-yl)pyridin-3-yl]-N-ethyl-6-methyl-7-oxo-6,7-dihydro-1H-pyrrolo[2,3-c]pyridine-2-carboxamide], the Ki in assay [1] was 359 nM; in assay [2], 2.3 nM.

Turning to `CCNC(=O)c1cc2c(-c3cc(C(O)(CC)c4ccc(F)cc4)cnc3Oc3c(C)cccc3C)cn(C)c(=O)c2[nH]1` (stereo not drawn) [Example 9, 4-{2-(2,6-dimethylphenoxy)-5-[1-(4-fluorophenyl)-1-hydroxypropyl]pyridin-3-yl}-N-ethyl-6-methyl-7-oxo-6,7-dihydro-1H-pyrrolo[2,3-c]pyridine-2-carboxamide], the Ki was 601 nM in assay [1] and 3.8 nM in assay [2].

With `CCNC(=O)c1cc2c(-c3cc(C(O)(CC)CC(C)C)cnc3Oc3c(C)cccc3C)cn(C)c(=O)c2[nH]1` (stereo not drawn) [Example 10, 4-[2-(2,6-dimethylphenoxy)-5-(3-hydroxy-5-methylhexan-3-yl)pyridin-3-yl]-N-ethyl-6-methyl-7-oxo-6,7-dihydro-1H-pyrrolo[2,3-c]pyridine-2-carboxamide], the Ki is 715 nM in assay [1] and 5.4 nM in assay [2].

For `CCNC(=O)c1cc2c(-c3cc(C(O)(CC)C4CCCC4)cnc3Oc3c(C)cccc3C)cn(C)c(=O)c2[nH]1` (stereo not drawn) [Example 11, 4-[5-(1-cyclopentyl-1-hydroxypropyl)-2-(2,6-dimethylphenoxy)pyridin-3-yl]-N-ethyl-6-methyl-7-oxo-6,7-dihydro-1H-pyrrolo[2,3-c]pyridine-2-carboxamide], the Ki was 170 nM in assay [1] and 2.6 nM in assay [2].

`CCNC(=O)c1cc2c(-c3cc(C(O)(CC)C4CC4)cnc3Oc3c(C)cccc3C)cn(C)c(=O)c2[nH]1` (stereo not drawn) [Example 12, 4-[5-(1-cyclopropyl-1-hydroxypropyl)-2-(2,6-dimethylphenoxy)pyridin-3-yl]-N-ethyl-6-methyl-7-oxo-6,7-dihydro-1H-pyrrolo[2,3-c]pyridine-2-carboxamide]: the Ki is 97 nM in assay [1] and 1.9 nM in assay [2].

Regarding `CCNC(=O)c1cc2c(-c3cc(C(O)(CC)C(C)CC)cnc3Oc3c(C)cccc3C)cn(C)c(=O)c2[nH]1` (stereo not drawn) [Example 13, 4-[2-(2,6-dimethylphenoxy)-5-(3-hydroxy-4-methylhexan-3-yl)pyridin-3-yl]-N-ethyl-6-methyl-7-oxo-6,7-dihydro-1H-pyrrolo[2,3-c]pyridine-2-carboxamide], the Ki in assay [1] is 114 nM; in assay [2], 2 nM.

In the case of `CCNC(=O)c1cc2c(-c3cc(C(O)(CC)CCc4ccccc4)cnc3Oc3c(C)cccc3C)cn(C)c(=O)c2[nH]1` (stereo not drawn) [Example 14, 4-[2-(2,6-dimethylphenoxy)-5-(3-hydroxy-1-phenylpentan-3-yl)pyridin-3-yl]-N-ethyl-6-methyl-7-oxo-6,7-dihydro-1H-pyrrolo[2,3-c]pyridine-2-carboxamide], the Ki was 965 nM in assay [1] and 2.3 nM in assay [2].
